From patent US9101556B2, “Therapeutic agent and therapeutic device for alleviating ischemia-reperfusion injury” (priority 2010, dated 2015)

System: myocardial ischemia-reperfusion injury
Assay: Murine myocardial ischemia-reperfusion injury model (60 min LAD ligation, then reperfusion); infarcted area by Evans blue/TTC staining
Type: in vivo, C57BL/6J male mice
Settings: inhalation from 5 min before until 30 min after start of reperfusion; measured 24 h after reperfusion; vs control (oxygen only); t-test p<0.01
Text: 10-week old C57BL/6J male mice were used for the experiment. […] However, during this period, the animals were allowed to take ad libitum the antibiotic-containing water. […] After intraperitoneal administration of pentobarbital as an anesthetic and tracheal intubation, each animal was connected to an animal ventilator for respiration care. The left thorax was shaven and disinfected to carry out thoracotomy, and the left anterior descending coronary artery was ligated with a silk thread to maintain a state of ischemia for 60 minutes. The silk thread used for ligation was then released to cause reperfusion. Reperfusion was confirmed by the restart of blood flow. After confirming reperfusion, the thorax was closed, and ventilator care was continued until the animal awakened from anesthesia. After awakening from anesthesia, the tube was removed, and the animal received care in indoor air. […] Based on the image which was obtained, each heart section was measured for the area of the LV (left ventricle), the AAR (area at risk=the ischemic area), and the area of Nec (necrosis; the infarcted area) using ImageJ image processing software to calculate the value of AAR/LV (proportion of the ischemic area in the left ventricle) and that of Nec/AAR (proportion of the infarcted area in the ischemic area). […]

nitrogen monoxide was tested, and the “Nec/AAR (proportion of the infarcted area in the ischemic area) compared with the control group” value was “decreased”.
For [HH] [hydrogen], the “Nec/AAR (proportion of the infarcted area in the ischemic area) compared with the control group” value was “decreased”.
